What all share (experiment): ≥ marks a high value that may be exact or a test limit, other limits are often not marked, values filed in µg/mL are converted to µM
Assay [1] concerns Listeria monocytogenes KCTC 3710.
Assay [2] concerns Staphylococcus aureus KCTC 1621.
Assay [3] has as its system Bacillus subtilis KCTC 1918.
Assay [4] deals with Trichosporon beigelii KCTC 7707.
The subject of assay [5] is Pseudomonas aeruginosa KCTC 1637.
The subject of assay [6] is Escherichia coli KCTC 1682.
Assay [7] relates to Salmonella typhimurium KCTC 1926.
Assay [8] relates to Mycobacterium tuberculosis H37Rv.
Assay [9] relates to Klebsiella pneumoniae ST258.
Assay [10] deals with Staphylococcus aureus ATCC 25923.
Assay [11] deals with Mycobacterium tuberculosis.
The subject of assay [12] is Escherichia coli ATCC 25922.
Assay [13] relates to Pseudomonas aeruginosa ATCC 27853.
The test system of assay [14] is Escherichia coli ATCC 11303.
Assay [15] deals with Proteus mirabilis ATCC 25933.
Assay [16] relates to Micrococcus luteus ATCC 4698.
The subject of assay [17] is Escherichia coli.
Assay [18] relates to Staphylococcus epidermidis ATCC 12228.
The subject of assay [19] is Shigella dysenteriae ATCC 9752.
In assay [20] the test system is Pseudomonas putida.
In assay [21] the test system is Salmonella enterica subsp. enterica serovar Typhimurium ATCC 14028.
In assay [22] the test system is Bacillus subtilis KCTC 1021.
Assay [23] has as its system Pseudomonas aeruginosa ATCC 9027.
For assay [24], the system named is Candida albicans.
Assay [25] deals with Saccharomyces cerevisiae.
For assay [26], the system named is Serratia marcescens.
Assay [27] relates to Klebsiella pneumoniae ATCC 10031.
In assay [28] the test system is Candida albicans ATCC 90028.
Assay [29] concerns Enterococcus faecalis ATCC 29212.
For assay [30], the system named is Klebsiella pneumoniae ATCC 700603.
For assay [31], the system named is Staphylococcus aureus 10.
Assay [32] relates to Escherichia coli 37.
For assay [33], the system named is Candida parapsilosis ATCC 22019.
In assay [34] the test system is Staphylococcus aureus 37.
Assay [35] concerns Escherichia coli 218.
The test system of assay [36] is Enterobacter cloacae ATCC 13047.
For assay [37], the system named is Candida albicans ATCC 2002.
The subject of assay [38] is Pseudomonas aeruginosa.
In assay [39] the test system is Shigella dysenteriae.
Assay [40] has as its system Clavibacter michiganensis subsp. michiganensis KACC 20122.

Values after ≈ are worked out from the molar mass of the structure shown. Values joined by “and” are separate entries in the source; they are usually repeats but may differ in a detail not shown here. Equal entries are not always repeated.

This passage reports MIC results from DBAASP.

With `CC[C@H](C)[C@H](NC(=O)[C@H](CCCCN)NC(=O)[C@H](CCCCN)NC(=O)[C@H](Cc1ccccc1)NC(=O)[C@H](CC(C)C)NC(=O)[C@H](CCCCN)NC(=O)[C@H](CCCCN)NC(=O)[C@H](CC(C)C)NC(=O)[C@H](CCCCN)NC(=O)[C@H](CCCCN)NC(=O)[C@@H](N)Cc1ccccc1)C(=O)N[C@@H](CC(C)C)C(=O)N[C@@H](CCCCN)C(=O)N[C@@H](CC(C)C)C(=O)N[C@@H](CCCCN)C(N)=O` [FKKLKKLFKKILKLK], the MIC (commonly the least concentration at which growth counts as inhibited) is 4 µM and 8 µM in assay [1]; 8 µM and 16 µM in [2]; 8 µM and 16 µM in [3]; 1 µM and 2 µM in assay [4]; 2 µM (≈ 3.81 µg/mL) in [5]; 8 µM (≈ 15.2 µg/mL) in assay [6]. Also, the minimum inhibitory concentration (MIC) in assay [7] was 1 µM and 2 µM.
On to `CC[C@H](C)[C@H](NC(=O)[C@H](CC(C)C)NC(=O)[C@H](CCCCN)NC(=O)[C@H](CC(C)C)NC(=O)[C@H](C)NC(=O)CNC(=O)[C@H](CCCCN)NC(=O)[C@H](C)NC(=O)[C@H](CC(C)C)NC(=O)[C@H](C)NC(=O)CNC(=O)[C@H](Cc1c[nH]c2ccccc12)NC(=O)[C@@H](N)Cc1ccccc1)C(=O)NCC(=O)N[C@@H](CO)C(=O)N[C@@H](CC(C)C)C(=O)N[C@@H](Cc1ccccc1)C(=O)N[C@@H](CO)C(=O)N[C@@H](CO)C(=O)N[C@@H](Cc1ccccc1)C(=O)N[C@@H](CO)C(=O)N[C@@H](CCCCN)C(=O)N[C@@H](CCCCN)C(=O)N[C@@H](CC(=O)O)C(=O)O` [FWGALAKGALKLIGSLFSSFSKKD], for which the MIC is 18.7 µM (≈ 48.1 µg/mL) in [8]; 19.4 µM (≈ 50 µg/mL) in [9]; 12.5 µM (≈ 32.2 µg/mL) in [10]; 18.7 µM (≈ 48.1 µg/mL) in assay [11]; 12.5 µM (≈ 32.2 µg/mL) in assay [12]; greater than 19.4 µM in assay [13].
As for `CC(C)C[C@H](NC(=O)CNC(=O)CN)C(=O)N[C@@H](CCCCN)C(=O)N[C@@H](CCCCN)C(=O)N[C@@H](CC(C)C)C(=O)NCC(=O)N[C@@H](CCCCN)C(=O)N[C@@H](CCCCN)C(=O)N[C@@H](CC(C)C)C(=O)N[C@@H](CCC(=O)O)C(=O)NCC(=O)N[C@@H](C)C(=O)NCC(=O)N[C@@H](CCCCN)C(=O)N[C@@H](CCCN=C(N)N)C(=O)N[C@H](C(=O)N[C@@H](Cc1ccccc1)C(=O)N[C@@H](CC(N)=O)C(=O)N[C@@H](C)C(=O)N[C@@H](C)C(=O)N[C@@H](CCC(=O)O)C(=O)N[C@@H](CCCCN)C(=O)N[C@@H](C)C(=O)N[C@@H](CC(C)C)C(=O)N1CCC[C@H]1C(=O)O)C(C)C` [GGLKKLGKKLEGAGKRVFNAAEKALP], in assay [14], the MIC was 11 µM (≈ 29.6 µg/mL).
Turning to `CC[C@H](C)[C@H](NC(=O)CN)C(=O)N[C@@H](CCSC)C(=O)N[C@@H](CO)C(=O)N[C@H](C(=O)N[C@H](C(=O)N[C@@H](CCCCN)C(=O)N[C@@H](CC(=O)O)C(=O)N[C@H](C(=O)N[C@@H](C)C(=O)N[C@@H](CCCCN)C(=O)N[C@@H](CC(N)=O)C(=O)N[C@@H](C)C(=O)N[C@@H](C)C(=O)N[C@@H](CCCCN)C(=O)N[C@@H](CCC(=O)O)C(=O)N[C@@H](C)C(=O)N[C@@H](C)C(=O)N[C@@H](CCCCN)C(=O)NCC(=O)N[C@@H](C)C(=O)N[C@@H](CC(C)C)C(=O)N[C@@H](CO)C(=O)N[C@H](C(=O)N[C@@H](CC(C)C)C(=O)N[C@@H](CO)C(=O)N[C@H]1CSSC[C@@H](C(=O)O)NC(=O)[C@H]([C@@H](C)O)NC(=O)[C@H](CCCCN)NC(=O)[C@H](C)NC(=O)[C@H](CC(C)C)NC(=O)[C@H](CCCCN)NC1=O)[C@@H](C)O)C(C)C)C(C)C)[C@@H](C)CC` [GIMSIVKDVAKNAAKEAAKGALSTLSCKLAKTC], the minimum inhibitory concentration (MIC) was no less than 60.2 µM in assay [15]; 0.753 µM (≈ 2.5 µg/mL) in assay [16]; 22.6 µM (≈ 75 µg/mL) in assay [17]; 3.01 µM (≈ 9.99 µg/mL) in [18]; 7.53 µM (≈ 25 µg/mL) in assay [19]; 15.1 µM (≈ 50 µg/mL) in assay [20]. Moreover, the MIC is 45.2 µM (≈ 150 µg/mL) in [21]; 3.01 µM (≈ 9.99 µg/mL) in assay [22]; 15.1 µM (≈ 50 µg/mL) in assay [23]; 45.2 µM (≈ 150 µg/mL) in assay [24]; no less than 45.2 µM in assay [25]; no less than 60.2 µM in assay [26]. This molecule also returned an MIC in assay [27] of 7.53 µM (≈ 25 µg/mL).
For `CC[C@H](C)[C@H](N)C(=O)N[C@@H](CC(N)=O)C(=O)N[C@@H](CC(C)C)C(=O)N[C@@H](CCCCN)C(=O)N[C@@H](C)C(=O)N[C@H](C(=O)N[C@@H](C)C(=O)N[C@@H](C)C(=O)N[C@@H](CC(C)C)C(=O)N[C@H](C(=O)N[C@@H](CCCCN)C(=O)N[C@@H](CCCCN)C(=O)N[C@@H](CC(C)C)C(=O)N[C@@H](CC(C)C)C(=O)O)C(C)C)[C@@H](C)CC` [INLKAIAALVKKLL], the minimum inhibitory concentration (MIC) in [10] was 13.3 µM (≈ 20 µg/mL); in [28], no less than 53.1 µM; in assay [29], 53.1 µM (≈ 80 µg/mL); in assay [30], 26.5 µM (≈ 40 µg/mL); in assay [31], no less than 53.1 µM; in assay [32] it was 26.5 µM (≈ 40 µg/mL). The minimum inhibitory concentration (MIC) in [33] was 26.5 µM (≈ 40 µg/mL); in assay [13], 26.5 µM (≈ 40 µg/mL); in assay [34], 13.3 µM (≈ 20 µg/mL); in assay [35], no less than 53.1 µM; in assay [36], no less than 53.1 µM; in assay [37], no less than 53.1 µM. For the same molecule, the minimum inhibitory concentration (MIC) in assay [38] worked out at 26.5 µM (≈ 40 µg/mL); in [39], 13.3 µM (≈ 20 µg/mL).
`NCCCC[C@H](N)C(=O)N[C@@H](Cc1c[nH]c2ccccc12)C(=O)N[C@@H](Cc1c[nH]c2ccccc12)C(=O)N[C@@H](Cc1c[nH]c2ccccc12)C(=O)N[C@@H](CCCN=C(N)N)C(=O)N[C@@H](Cc1c[nH]c2ccccc12)C(N)=O` [KWWWRW]: the MIC in assay [40] is 12.5 µM and 25 µM and 18.8 µM.
